Experimental data from patent publication US20260226048A1, “MULTI-CYCLIC IRAK AND FLT3 INHIBITING COMPOUNDS AND USES THEREOF” (CHILDREN'S HOSPITAL MEDICAL CENTER, priority 2023, published 2026).
Where two headings read alike, the source gives them in different places.

What was measured:
[1] = biological target: T1, IRAK1 (Homo sapiens, UniProt P51617); test: RBC HotSpot Kinase Assay, IRAK1; format: biochemical; settings: isolated kinase enzyme, 33P-ATP, P81 filter-binding
T1 construct: purchased Reaction Biology (RBC HotSpot)
T1 sequence (P51617 whole entry): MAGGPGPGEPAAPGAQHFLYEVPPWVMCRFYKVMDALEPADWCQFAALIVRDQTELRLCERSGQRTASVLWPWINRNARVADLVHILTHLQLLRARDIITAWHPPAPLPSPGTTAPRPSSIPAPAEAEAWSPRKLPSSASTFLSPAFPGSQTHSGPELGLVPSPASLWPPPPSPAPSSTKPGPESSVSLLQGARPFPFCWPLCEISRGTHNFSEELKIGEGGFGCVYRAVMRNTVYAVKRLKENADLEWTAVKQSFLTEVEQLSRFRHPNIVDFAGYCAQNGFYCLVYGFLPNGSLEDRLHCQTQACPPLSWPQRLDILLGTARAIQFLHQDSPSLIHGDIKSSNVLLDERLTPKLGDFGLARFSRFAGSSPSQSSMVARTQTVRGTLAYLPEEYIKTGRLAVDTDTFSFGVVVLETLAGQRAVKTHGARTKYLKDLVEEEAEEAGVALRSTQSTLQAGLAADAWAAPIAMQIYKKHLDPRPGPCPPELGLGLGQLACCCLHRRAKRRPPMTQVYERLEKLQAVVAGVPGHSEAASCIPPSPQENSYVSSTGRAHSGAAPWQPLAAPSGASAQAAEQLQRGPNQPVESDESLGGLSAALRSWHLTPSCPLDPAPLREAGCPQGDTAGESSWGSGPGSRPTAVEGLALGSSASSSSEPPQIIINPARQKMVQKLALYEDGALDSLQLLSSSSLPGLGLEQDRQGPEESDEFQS
Excerpt: (§1) This assay uses the isolated kinase enzyme. […] Unlike kinase binding assays that measure competition for ATP, the HotSpot Kinase Assay is a functional assay that measures catalytic activity; as such it measures relative functional potency regardless of the mechanism of enzyme inhibition. This assay uses the form of the various enzymes that are easiest to express, which may not necessarily be the form of the enzyme that exist in the cell. (Sometimes the carboxy terminus has been truncated to aid in expression, or, if it is a receptor kinase, the enzyme itself is isolated from the other parts of the receptor that are involved in regulating kinase activity.)
(§2) The reagent used was as follows: Base Reaction buffer; 20 mM Hepes (pH 7.5), 10 mM MgCl2, 1 mM EGTA, 0.01% Brij35, 0.02 mg/ml BSA, 0.1 mM Na3VO4, 2 mM DTT, 1% DMSO. Required cofactors were added individually to each kinase reaction.

[2] = tested on: MOLM14 D835Y cells; test: MOLM14 D835Y cell viability assay (Cell Titer Glo); format: cell-based; settings: cell viability, Cell Titer Glo, 48 hours, read-out: MOLM14 D835Y IC50
Procedure: Both cell lines have activated FLT3 receptors, each of which carry additional resistance mutations in the kinase domain (D835Y and F691L, respectively).
For viability/cytotoxicity assessments, cells were seeded into 1536-well white polystyrene tissue culture-treated Greiner plates using a Multidrop Combi dispenser (ThermoFisher), in final volume 5 μL of growth media per well, at a density of 1000 cells per well. […] Plates were incubated for 48 hours at standard incubator conditions covered by a stainless steel gasketed lid to prevent evaporation. 48 hours post compound addition, 3 μL of Cell Titer Glo (Promega) were added to each well and plates were incubated at room temperature for 15 minutes with the stainless-steel lid in place. Luminescence readings were taken using a Viewlux imager (PerkinElmer) with a 2 second exposure time per plate.

[3] = biological target: T2, IRAK4 (Homo sapiens, UniProt Q9NWZ3); test: RBC HotSpot Kinase Assay, IRAK4; format: biochemical; parameters: purchased Reaction Biology (RBC HotSpot); settings: isolated kinase enzyme, 33P-ATP, P81 filter-binding
T2 sequence (Q9NWZ3 1-460): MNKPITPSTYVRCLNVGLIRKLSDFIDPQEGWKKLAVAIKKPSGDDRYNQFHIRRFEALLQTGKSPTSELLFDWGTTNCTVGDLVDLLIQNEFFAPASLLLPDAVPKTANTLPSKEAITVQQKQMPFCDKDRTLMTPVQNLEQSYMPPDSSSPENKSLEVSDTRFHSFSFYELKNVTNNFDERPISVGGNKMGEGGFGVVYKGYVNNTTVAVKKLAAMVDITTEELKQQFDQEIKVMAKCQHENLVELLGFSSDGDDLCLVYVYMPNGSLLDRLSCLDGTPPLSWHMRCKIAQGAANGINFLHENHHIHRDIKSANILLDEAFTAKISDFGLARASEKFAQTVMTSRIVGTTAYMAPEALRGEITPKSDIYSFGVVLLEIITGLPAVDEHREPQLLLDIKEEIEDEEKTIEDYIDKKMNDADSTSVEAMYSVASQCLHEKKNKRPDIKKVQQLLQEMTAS
Excerpt: as §1, with “enzyme. This assay is very useful for determining competition of the inhibitor for ATP and/or substrates and for measuring the kinetics of enzyme inhibition.” for “enzyme.”
as §2
The reaction procedure was as follows: • 1) Substrates were prepared in freshly prepared Reaction Buffer. • 2) Any required cofactors were delivered to the substrate solution above. • 3) Kinase was delivered into the substrate solution and gently mixed. • 4) Compounds were delivered in 1000A DM into the kinase reaction mixture by Acoustic technology (Echo550; nanoliter range), followed by incubation for 20 min at room temp. • 5) 33P-ATP was delivered into the reaction mixture to initiate the reaction. • 6) The mixture was incubated for 2 hours at room temperature. • 7) Kinase activity was detected by P81 filter-binding method.

[4] = biological target: T3, FLT3 (Homo sapiens, UniProt P36888); test: RBC HotSpot Kinase Assay, FLT3; format: biochemical; parameters: purchased Reaction Biology (RBC HotSpot); settings: isolated kinase enzyme, 33P-ATP, P81 filter-binding
T3 sequence (P36888 27-993): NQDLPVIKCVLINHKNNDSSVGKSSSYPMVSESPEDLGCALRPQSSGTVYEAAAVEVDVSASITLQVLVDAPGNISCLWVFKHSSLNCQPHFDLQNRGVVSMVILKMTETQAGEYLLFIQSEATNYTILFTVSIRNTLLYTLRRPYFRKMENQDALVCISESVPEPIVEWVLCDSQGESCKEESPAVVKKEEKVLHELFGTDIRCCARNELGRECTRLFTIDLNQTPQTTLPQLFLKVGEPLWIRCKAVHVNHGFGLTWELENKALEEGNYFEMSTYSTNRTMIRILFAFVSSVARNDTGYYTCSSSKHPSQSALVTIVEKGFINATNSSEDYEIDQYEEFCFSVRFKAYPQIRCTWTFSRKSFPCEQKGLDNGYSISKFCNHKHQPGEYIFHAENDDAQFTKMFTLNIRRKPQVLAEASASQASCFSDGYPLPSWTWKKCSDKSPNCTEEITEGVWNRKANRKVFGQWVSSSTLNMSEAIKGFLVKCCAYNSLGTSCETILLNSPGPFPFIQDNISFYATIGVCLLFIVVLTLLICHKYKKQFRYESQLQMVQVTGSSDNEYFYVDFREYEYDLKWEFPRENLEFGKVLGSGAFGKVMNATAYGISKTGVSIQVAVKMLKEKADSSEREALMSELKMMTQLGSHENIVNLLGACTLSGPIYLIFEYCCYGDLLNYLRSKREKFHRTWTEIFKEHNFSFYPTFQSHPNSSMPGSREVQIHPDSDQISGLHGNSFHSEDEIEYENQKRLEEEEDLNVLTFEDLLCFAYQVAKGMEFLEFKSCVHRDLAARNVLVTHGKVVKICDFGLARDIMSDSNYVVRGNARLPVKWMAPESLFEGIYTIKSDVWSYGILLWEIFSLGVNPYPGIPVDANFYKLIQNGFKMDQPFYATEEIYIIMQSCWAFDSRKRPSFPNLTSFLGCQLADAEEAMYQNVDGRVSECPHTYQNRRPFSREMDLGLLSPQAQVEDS
Excerpt: as §1, §2

| Compound | IC50 [1] | IC50 ([2]; Homo sapiens, MOLM-14, 48 h) | IC50 [3] | IC50 [4] | IC50 [2] |
| --- | --- | --- | --- | --- | --- |
| CC(O)(c1ccc2ncc(-c3ccnc(N[C@H]4CNC[C@@H]4F)n3)n2c1)C(F)(F)F (single isomer, unassigned) [Compound 24a] | 16 nM | 41 nM | 0.9 nM | < 0.5 nM | – |
| CC(O)(c1ccc2ncc(-c3ccnc(N[C@H]4CNC[C@@H]4F)n3)n2c1)C(F)(F)F (single isomer, unassigned) [Compound 26a] | 5 nM | – | < 0.5 nM | < 0.5 nM | 23 nM |
| CC(O)(c1ccc2ncc(-c3cncc(N[C@@H]4CCCNC4)n3)n2c1)C(F)(F)F (single isomer, unassigned) [Compound 29a] | 27 nM | – | 0.8 nM | 1 nM | 106 nM |
| CC(O)(c1ccc2ncc(-c3cncc(N[C@H]4CNC[C@@H]4F)n3)n2c1)C(F)(F)F (single isomer, unassigned) [Compound 30a] | 108 nM | 576 nM | 5 nM | 2 nM | – |
| CC(O)(c1ccc2ncc(-c3cncc(N[C@H]4CNC[C@@H]4F)n3)n2c1)C(F)(F)F (single isomer, unassigned) [Compound 32a] | 53 nM | – | 1 nM | 2 nM | 408 nM |
| CC(O)(c1ccc2ncc(-c3cncc(N[C@H]4CNCC[C@@H]4F)n3)n2c1)C(F)(F)F (single isomer, unassigned) [Compound 33a] | 9 nM | – | 0.8 nM | 0.7 nM | 65 nM |
| CC(O)(c1ccc2ncc(-c3nc(N[C@H]4CNC[C@@H]4F)ncc3F)n2c1)C(F)(F)F (single isomer, unassigned) [Compound 36a] | 4 nM | 41 nM | 2 nM | < 0.5 nM | – |
| CC(O)(c1ccc2ncc(-c3nc(N[C@H]4CNC[C@@H]4F)ncc3F)n2c1)C(F)(F)F (single isomer, unassigned) [Compound 38a] | 1 nM | – | 0.6 nM | < 0.5 nM | 51 nM |
| CC(O)(c1ccc2ncc(-c3nc(N[C@@H]4CCCNC4)ncc3F)n2c1)C(F)(F)F (single isomer, unassigned) [Compound 39a] | 2 nM | – | 1 nM | < 0.5 nM | 32 nM |
| CC(O)(c1cn2c(-c3nc(N[C@@H]4CCCNC4)ncc3F)cnc2cn1)C(F)(F)F (single isomer, unassigned) [Compound 131a] | 15 nM | – | 28 nM | 2 nM | – |
| CC(O)(c1cn2c(-c3nc(N[C@@H]4CCCNC4)ncc3F)cnc2cn1)C(F)(F)F (single isomer, unassigned) [Compound 132a] | 3 nM | – | 2 nM | < 0.5 nM | – |
| CC(O)(c1cn2c(-c3nc(N[C@H]4CNCC[C@@H]4F)ncc3F)cnc2cn1)C(F)(F)F (single isomer, unassigned) [Compound 133a] | 15 nM | – | 15 nM | 1 nM | – |
| CC(O)(c1cn2c(-c3nc(N[C@H]4CNCC[C@@H]4F)ncc3F)cnc2cn1)C(F)(F)F (single isomer, unassigned) [Compound 134a] | 2 nM | – | 1 nM | < 0.5 nM | – |
| COc1cc2ncc(-c3nc(N[C@H]4CNC[C@@H]4F)ncc3F)n2nc1C1CC1 [Compound 2a, 4-(6-cyclopropyl-7-methoxyimidazo[1,2-b]pyridazin-3-yl)-5-fluoro-N-((3S,4S)-4-fluoropyrrolidin-3-yl)pyrimidin-2-amine] | 1 nM | 4 nM | 0.7 nM | < 0.5 nM | – |
| FC(F)COc1cc2ncc(-c3ccnc(N[C@H]4CNC[C@@H]4F)n3)n2nc1C1CC1 [Compound 5a, 4-(6-cyclopropyl-7-(2,2-difluoroethoxy)imidazo[1,2-b]pyridazin-3-yl)-N-((3S,4S)-4-fluoropyrrolidin-3-yl)pyrimidin-2-amine] | 29 nM | 29 nM | 0.9 nM | < 0.5 nM | – |
| FC(F)COc1cc2ncc(-c3ccnc(N[C@@H]4CCCNC4)n3)n2nc1C1CC1 [Compound 6a, (R)-4-(6-cyclopropyl-7-(2,2-difluoroethoxy)imidazo[1,2-b]pyridazin-3-yl)-N-(piperidin-3-yl)pyrimidin-2-amine] | 133 nM | 9 nM | 3 nM | < 0.5 nM | – |
| COc1cc2ncc(-c3nc(N[C@H]4CNCC[C@@H]4F)ncc3F)n2nc1C1(C)COC1 [Compound 70a, 5-fluoro-N-((3S,4S)-4-fluoropiperidin-3-yl)-4-(7-methoxy-6-(3-methyloxetan-3-yl)imidazo[1,2-b]pyridazin-3-yl)pyrimidin-2-amine] | 3 nM | – | < 0.5 nM | < 0.5 nM | – |
| [2H]C([2H])([2H])Oc1cc2ncc(-c3ccnc(N[C@H]4CNCC[C@@H]4F)n3)n2nc1C1CC1 [Compound 128a, 4-(6-cyclopropyl-7-(methoxy-d3)imidazo[1,2-b]pyridazin-3-yl)-N-((3S,4S)-4-fluoropiperidin-3-yl)pyrimidin-2-amine] | 24 nM | – | 0.7 nM | < 0.5 nM | – |
| [2H]C([2H])([2H])Oc1cc2ncc(-c3ccnc(N[C@@H]4CCCNC4)n3)n2nc1C1CC1 [Compound 129a, (R)-4-(6-cyclopropyl-7-(methoxy-d3)imidazo[1,2-b]pyridazin-3-yl)-N-(piperidin-3-yl)pyrimidin-2-amine] | 86 nM | – | 2 nM | < 0.5 nM | – |
